Legend:
[1] = Solubility under the protocol conditions; assay type: physicochemical; settings: compounds dissolved in DMSO and diluted in medium
Experimental: Among the 43 compounds tested derivatives 81, 96, 97, 100–104 were insoluble under the protocol conditions and, consequently, they were eliminated from further experiments.
Compounds were dissolved in dimethyl sulfoxide (DMSO, Sigma-Aldrich, St. Louis, MO, USA) to 125 mM. The final concentration of DMSO in the compounds dilutions was not higher than 1.00%. Drug, sulfadiazine [4-amino-N-(2-pyrimidinyl)benzenesulfonamide] (S8626, Sigma-Aldrich) was dissolved in 1M sodium hydroxide (NaOH, Sigma-Aldrich) to 400 mM. Final concertation of NaOH in sulfadiazine dilutions was not higher than 2.5%. Ready solution sulfadiazine and trimethoprim in weight ratio 5:1 (Sul-Tridin 24%, 200 mg/mL [800 mM] + 40 mg/mL [137.78 mM]– ScanVet Poland). Dilution of the all compounds and drugs were freshly prepared before the cells were exposed in appropriate medium.

[2] = Cytotoxic assay (MTT, ISO 10993-5:2009(E)), 24 h treatment; assay type: cell-based; settings: L929 mouse fibroblast cells, L929 mouse fibroblasts, values above highest tested concentration extrapolated
Experimental: The L929 mouse fibroblast (ATTC® CCL-1™, Manassas, VA, USA) were culturing according to the ATCC product sheet. […] The cell viability assay were performed precisely according to international standards (ISO 10993-5:2009(E)), using the tetrazolium salt [3-(4,5-dimethylthiazol-2-yl)-2,5-diphenyltetrazolium bromide] (MTT, Sigma-Aldrich) and mouse fibroblasts L929 cells. Cells (1 × 10^4 per well) were treated 24 h with compounds or drug in different concentration range. The optical density at 570 nm on the ELISA reader (Multiskan EX, Labsystems, Vienna, VA, USA), was read. The results were expressed as a percentage of viability compared to untreated cells. […] The CC30/CC50 represents the concentration of tested compounds or drugs that was required for 30% or 50% cells proliferation inhibition in vitro. According to the previously mentioned ISO 10993-5:2009(E) norm, the CC30 value is recognized as non-cytotoxic concentration for the cell line. All experiments were performed in triplicate.

[3] = system: T. gondii tachyzoites (RH strain); experiment: In vitro anti-T. gondii activity, [3H]-uracil incorporation assay in infected Hs27 cells; assay type: cell-based, Toxoplasma gondii; settings: for IC50: Toxoplasma gondii, T. gondii RH tachyzoites proliferation in Hs27 cells, na = not active in the tested concentration range; for SR (selectivity ratio): ratio of CC50 (L929) to IC50 (T. gondii); for inhibition of proliferation, fold better (lower IC50) than sulfadiazine: relative to sulfadiazine; for inhibition of proliferation, fold better than sulfadiazine + trimethoprim (5:1): relative to sulfadiazine + trimethoprim (5:1)

Row | melting point | solubility under the protocol conditions [1] | Compound | CC50 at 24 h [2] | IC50 [3] | SR (selectivity ratio) [3] | inhibition of proliferation, fold better (lower IC50) than sulfadiazine [3] | inhibition of proliferation, fold better than sulfadiazine + trimethoprim (5:1) [3]
1 | 214 to 216 °C | insoluble | COC(=O)C=C1SC(=NN=Cc2ccccc2O)N(c2ccc(Cl)cc2)C1=O [Compound 97, Methyl [3-(4-chlorophenyl)-2-{[(2-hydroxyphenyl)methylidene]hydrazinylidene}-4-oxo-1,3-thiazolidin-5-ylidene]acetate] |  |  |  |  | 
2 | 222 to 224 °C |  | COC(=O)C=C1SC(=NN=Cc2cccc(O)c2)N(c2ccc(Cl)cc2)C1=O [Compound 98, Methyl [3-(4-chlorophenyl)-2-{[(3-hydroxyphenyl)methylidene]hydrazinylidene}-4-oxo-1,3-thiazolidin-5-ylidene]acetate] | 167 µM |  |  |  | 
3 | 210 to 212 °C |  | COC(=O)C=C1SC(=NN=Cc2ccc(O)c(OC)c2)N(c2ccccc2)C1=O [Compound 92, Methyl [2-{[(4-hydroxy-3-methoxyphenyl)methylidene]hydrazinylidene}-4-oxo-3-phenyl-1,3-thiazolidin-5-ylidene]acetate] | 486 µM | 180 µM | 2.69 |  | 
4 | 236 to 238 °C |  | COC(=O)C=C1SC(=NN=Cc2cccc(O)c2)N(c2ccccc2)C1=O [Compound 90, Methyl [2-{[(3-hydroxyphenyl)methylidene]hydrazinylidene}-4-oxo-3-phenyl-1,3-thiazolidin-5-ylidene]acetate] | 234 µM |  |  |  | 
5 | 236 to 238 °C |  | COC(=O)C=C1SC(=NN=Cc2ccc(O)c(Br)c2)N(c2ccccc2)C1=O [Compound 95, Methyl [2-{[(3-bromo-4-hydroxyphenyl)methylidene]hydrazinylidene}-4-oxo-3-phenyl-1,3-thiazolidin-5-ylidene]acetate] | 428 µM | 28.3 µM | 15.11 |  | 18 fold
6 | 222 to 224 °C |  | COC(=O)C=C1SC(=NN=Cc2ccc(O)cc2)N(c2ccccc2)C1=O [Compound 91, Methyl [2-{[(4-hydroxyphenyl)methylidene]hydrazinylidene}-4-oxo-3-phenyl-1,3-thiazolidin-5-ylidene]acetate] | 493 µM | 92.9 µM | 5.31 |  | 
7 | 238 to 240 °C |  | COC(=O)C=C1SC(=NN=Cc2ccc(O)c(Cl)c2)N(c2ccccc2)C1=O [Compound 94, Methyl [2-{[(3-chloro-4-hydroxyphenyl)methylidene]hydrazinylidene}-4-oxo-3-phenyl-1,3-thiazolidin-5-ylidene]acetate] | 474 µM | 27.7 µM | 17.07 |  | 18 fold

Continued, compound first:

Row | Compound | melting point | solubility under the protocol conditions [1] | CC50 at 24 h [2] | IC50 [3] | SR (selectivity ratio) [3] | inhibition of proliferation, fold better (lower IC50) than sulfadiazine [3] | inhibition of proliferation, fold better than sulfadiazine + trimethoprim (5:1) [3]
8 | O=C(O)CC1SC(=NN=Cc2ccccc2O)N(c2ccc(Cl)cc2)C1=O (stereo not drawn) [Compound 81, [3-(4-Chlorophenyl)-2-{[(2-hydroxyphenyl)methylidene]hydrazinylidene}-4-oxo-1,3-thiazolidin-5-yl]acetic acid] | 234 to 236 °C | insoluble |  |  |  |  | 
9 | O=C(O)CC1SC(=NN=Cc2ccc(O)c(Cl)c2)N(c2ccc(Cl)cc2)C1=O (stereo not drawn) [Compound 86, [2-{[(3-Chloro-4-hydroxyphenyl)methylidene]hydrazinylidene}-3-(4-chlorophenyl)-4-oxo-1,3-thiazolidin-5-yl]acetic acid] | 256 to 257 °C |  | ≥ 1000 µM | 178 µM | ≥5.63 |  | 
10 | COc1cc(C=NN=C2SC(CC(=O)O)C(=O)N2c2ccc(Cl)cc2Cl)ccc1O (stereo not drawn) [Compound 88, [3-(2,4-Dichlorophenyl)-2-{[(4-hydroxy-3-methoxyphenyl)methylidene]hydrazinylidene}-4-oxo-1,3-thiazolidin-5-yl]acetic acid] | 226 to 228 °C |  | 566 µM | 129 µM | 4.37 | about 90 fold | 
11 | O=C(O)CC1SC(=NN=Cc2cccc(O)c2)N(c2ccc(Cl)cc2)C1=O (stereo not drawn) [Compound 82, [3-(4-Chlorophenyl)-2-{[(3-hydroxyphenyl)methylidene]hydrazinylidene}-4-oxo-1,3-thiazolidin-5-yl]acetic acid] | 226 to 228 °C |  | 656 µM | 263 µM | 2.49 |  | 
12 | CCOc1cc(C=NN=C2SC(CC(=O)O)C(=O)N2c2ccc(Cl)cc2)ccc1O (stereo not drawn) [Compound 85] | 224 to 226 °C |  | 759 µM | 165 µM | 4.59 |  | 
13 | O=C(O)CC1SC(=NN=Cc2ccc(O)c(Br)c2)N(c2ccc(Cl)cc2)C1=O (stereo not drawn) [Compound 87, [2-{[(3-Bromo-4-hydroxyphenyl)methylidene]hydrazinylidene}-3-(4-chlorophenyl)-4-oxo-1,3-thiazolidin-5-yl]acetic acid] | 254 to 255 °C |  | 425 µM | 116 µM | 3.66 | about 90 fold | 
14 | O=C(O)CC1SC(=NN=Cc2ccc(O)cc2)N(c2ccc(Cl)cc2)C1=O (stereo not drawn) [Compound 83, [3-(4-Chlorophenyl)-2-{[(4-hydroxyphenyl)methylidene]hydrazinylidene}-4-oxo-1,3-thiazolidin-5-yl]acetic acid] | 234 to 235 °C |  | 906 µM | 271 µM | 3.34 |  | 
15 | O=C1CSC(=NN=Cc2cccc(O)c2)N1c1ccccc1Cl [Compound 49, 3-(2-Chlorophenyl)-2-{[(3-hydroxyphenyl)methylidene]hydrazinylidene}-1,3-thiazolidin-4-one] | 192 to 194 °C |  | 188 µM |  |  |  | 
16 | COc1cc(C=NN=C2SC(CC(=O)O)C(=O)N2c2ccc(Cl)cc2)ccc1O (stereo not drawn) [Compound 84, [3-(4-Chlorophenyl)-2-{[(4-hydroxy-3-methoxyphenyl)methylidene]hydrazinylidene}-4-oxo-1,3-thiazolidin-5-yl]acetic acid] | 254 to 256 °C |  | 827 µM | 220 µM | 3.76 |  | 
17 | Nc1ccc(S(=O)(=O)Nc2ncccn2)cc1 [Sulfadiazine, 4-amino-N-(2-pyrimidinyl)benzenesulfonamide, reference compound] |  |  | ≥ 10000 µM | 10900 µM | ≥0.92 |  | 
18 | O=C1CSC(=NN=Cc2ccc(O)cc2)N1c1ccccc1Cl [Compound 50, 3-(2-Chlorophenyl)-2-{[(4-hydroxyphenyl)methylidene]hydrazinylidene}-1,3-thiazolidin-4-one] | 178 to 180 °C |  | 226 µM |  |  |  | 
19 | CCOc1cc(C=NN=C2SC(=CC(=O)OC)C(=O)N2c2ccccc2Cl)ccc1O [Compound 96, Methyl [3-(2-chlorophenyl)-2-{[(3-ethoxy-4-hydroxyphenyl)methylidene]hydrazinylidene}-4-oxo-1,3-thiazolidin-5-ylidene]acetate] | 216 to 218 °C | insoluble |  |  |  |  | 
20 | CCOc1cc(C=NN=C2SC(=CC(=O)OC)C(=O)N2c2ccccc2)ccc1O [Compound 93, Methyl [2-{[(3-ethoxy-4-hydroxyphenyl)methylidene]hydrazinylidene}-4-oxo-3-phenyl-1,3-thiazolidin-5-ylidene]acetate] | 190 to 192 °C |  | 463 µM | 191 µM | 2.42 |  | 
21 | CCOc1cc(C=NN=C2SC(CC(=O)O)C(=O)N2c2ccccc2)ccc1O (stereo not drawn) [Compound 78, [2-{[(3-Ethoxy-4-hydroxyphenyl)methylidene]hydrazinylidene}-4-oxo-3-phenyl-1,3-thiazolidin-5-yl]acetic acid] | 224 to 226 °C |  | ≥ 1000 µM |  |  |  | 
22 | O=C(O)CC1SC(=NN=Cc2cccc(O)c2)N(c2ccccc2)C1=O (stereo not drawn) [Compound 75, [2-{[(3-Hydroxyphenyl)methylidene]hydrazinylidene}-4-oxo-3-phenyl-1,3-thiazolidin-5-yl]acetic acid] | 214 to 216 °C |  | ≥ 1000 µM |  |  |  | 
23 | O=C(O)CC1SC(=NN=Cc2ccc(O)c(Cl)c2)N(c2ccccc2)C1=O (stereo not drawn) [Compound 79, [2-{[(3-Chloro-4-hydroxyphenyl)methylidene]hydrazinylidene}-4-oxo-3-phenyl-1,3-thiazolidin-5-yl]acetic acid] | 244 to 246 °C |  | ≥ 1000 µM |  |  |  | 
